Measured values from patent US10800792B2, “Inhibitors of Bruton's tyrosine kinase and method of their use” (JANSSEN PHARMACEUTICA NV, priority 2015, dated 2020).

Target: unphosphorylated-BTK kinase domain (UP-BTK), GST-tagged human BTK (389-659aa) (Homo sapiens (Human), UniProt Q06187)
Test: BTK kinase Lanthascreen binding assay
Settings: unphosphorylated-BTK kinase domain, 50 nM Tracer 236, 60 minutes; pIC50 = negative log of the IC50 in molar
How it was run: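 Lanthascreen competition binding; test compound vs fluorescent tracer on unphosphorylated BTK. Output: pIC50 (−log IC50, M).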

Sequence of unphosphorylated-BTK kinase domain (UP-BTK), GST-tagged human BTK (389-659aa) (Q06187 389-659): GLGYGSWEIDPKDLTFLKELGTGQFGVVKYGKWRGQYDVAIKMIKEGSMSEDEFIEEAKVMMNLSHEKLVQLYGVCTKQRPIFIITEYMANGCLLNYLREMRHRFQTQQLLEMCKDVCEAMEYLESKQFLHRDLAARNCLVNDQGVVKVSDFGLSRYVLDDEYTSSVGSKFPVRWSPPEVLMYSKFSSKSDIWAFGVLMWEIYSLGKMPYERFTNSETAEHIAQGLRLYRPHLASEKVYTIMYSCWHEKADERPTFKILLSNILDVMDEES

| BTK_I_binding pIC50 | Structure (SMILES) |
| --- | --- |
| 7.5 | C=CC(=O)N1CC[C@@H](NC(=O)c2sc3nccc4c3c2NC(=O)N4c2cccc(-c3ccccc3)c2)C1 [Example 531, (R)-5-([1,1′-Biphenyl]-3-yl)-N-(1-acryloylpyrrolidin-3-yl)-4-oxo-4,5-dihydro-3H-1-thia-3,5,8-triazaacenaphthylene-2-carboxamide] |
| 7.5 | C=CC(=O)N1CCC[C@@H](NC(=O)c2sc3nccc4c3c2NC(=O)N4c2cccc(CCC)c2)C1 [Example 533, (R)—N-(1-Acryloylpiperidin-3-yl)-4-oxo-5-(3-propylphenyl)-4,5-dihydro-3H-1-thia-3,5,8-triazaacenaphthylene-2-carboxamide] |
| 7.8 | C=CC(=O)N1CCC[C@@H](NC(=O)c2sc3nccc4c3c2NC(=O)N4c2cccc(C3CCC3)c2)C1 [Example 534, (R)—N-(1-Acryloylpiperidin-3-yl)-5-(3-cyclobutylphenyl)-4-oxo-4,5-dihydro-3H-1-thia-3,5,8-triazaacenaphthylene-2-carboxamide] |
| 7.5 | C=CC(=O)N1CCC[C@@H](NC(=O)c2sc3nccc4c3c2NC(=O)N4c2ccc(Oc3ccccc3)c(C)c2)C1 [Example 536, (R)—N-(1-Acryloylpiperidin-3-yl)-5-(3-methyl-4-phenoxyphenyl)-4-oxo-4,5-dihydro-3H-1-thia-3,5,8-triazaacenaphthylene-2-carboxamide] |
| 7.6 | C=CC(=O)N1CCC[C@@H](NC(=O)c2sc3nccc4c3c2NC(=O)N4c2cncc(-c3ccccc3)c2)C1 [Example 537, (R)—N-(1-Acryloylpiperidin-3-yl)-4-oxo-5-(5-phenylpyridin-3-yl)-4,5-dihydro-3H-1-thia-3,5,8-triazaacenaphthylene-2-carboxamide] |
| 7.0 | C=CC(=O)N1CCC[C@@H](NC(=O)c2sc3nccc4c3c2NC(=O)N4c2cccc(-c3cccnc3)c2)C1 [Example 538, (R)—N-(1-Acryloylpiperidin-3-yl)-4-oxo-5-(3-(pyridin-3-yl)phenyl)-4,5-dihydro-3H-1-thia-3,5,8-triazaacenaphthylene-2-carboxamide] |
| 7.2 | C=CC(=O)N1CCC[C@@H](NC(=O)c2sc3nccc4c3c2NC(=O)N4c2cccc(-c3ccccn3)c2)C1 [Example 540, (R)—N-(1-Acryloylpiperidin-3-yl)-4-oxo-5-(3-(pyridin-2-yl)phenyl)-4,5-dihydro-3H-1-thia-3,5,8-triazaacenaphthylene-2-carboxamide] |
| 6.8 | CNCC(=O)N1CCC[C@@H](NC(=O)c2sc3nccc4c3c2NC(=O)N4c2cccc(-c3ccccc3)c2)C1 [Example 551, (R)-5-([1,1′-Biphenyl]-3-yl)-N-(1-(2-(methylamino)acetyl)piperidin-3-yl)-4-oxo-4,5-dihydro-3H-1-thia-3,5,8-triazaacenaphthylene-2-carboxamide] |
| 7.5 | C=CC(=O)N1CCC[C@@H](NC(=O)c2sc3nccc4c3c2NC(=O)N4c2cnc(Oc3ccccc3)nc2)C1 [Example 556, (R)—N-(1-Acryloylpiperidin-3-yl)-4-oxo-5-(2-phenoxypyrimidin-5-yl)-4,5-dihydro-3H-1-thia-3,5,8-triazaacenaphthylene-2-carboxamide] |
| 7.7 | C=CC(=O)N1CC[C@@H](NC(=O)c2sc3nccc4c3c2NC(=O)N4c2ccc(Oc3ccccc3)c(Cl)c2)C1 [Example 558, (R)—N-(1-Acryloylpyrrolidin-3-yl)-5-(3-chloro-4-phenoxyphenyl)-4-oxo-4,5-dihydro-3H-1-thia-3,5,8-triazaacenaphthylene-2-carboxamide] |
| 8.2 | N#C/C(=C\C1CC1)C(=O)N1CCC[C@@H](NC(=O)c2sc3nccc4c3c2NC(=O)N4c2ccnc(-c3ccccc3)c2)C1 [Example 559, (R,E)-N-(1-(2-Cyano-3-cyclopropylacryloyl)piperidin-3-yl)-4-oxo-5-(2-phenylpyridin-4-yl)-4,5-dihydro-3H-1-thia-3,5,8-triazaacenaphthylene-2-carboxamide] |
| 7.6 | C=CC(=O)N1CCC[C@@H](NC(=O)c2sc3nccc4c3c2NC(=O)N4c2cccc(OC3CCCCC3)c2)C1 [Example 560, (R)—N-(1-Acryloylpiperidin-3-yl)-5-(3-(cyclohexyloxy)phenyl)-4-oxo-4,5-dihydro-3H-1-thia-3,5,8-triazaacenaphthylene-2-carboxamide] |
| 7.3 | C=CC(=O)N1CCC[C@@H](NC(=O)c2sc3nccc4c3c2NC(=O)N4c2cccc(OC3CCCC3)c2)C1 [Example 561, (R)—N-(1-Acryloylpiperidin-3-yl)-5-(3-(cyclopentyloxy)phenyl)-4-oxo-4,5-dihydro-3H-1-thia-3,5,8-triazaacenaphthylene-2-carboxamide] |

Further lines, the compound ahead of its results:

| Structure (SMILES) | BTK_I_binding pIC50 |
| --- | --- |
| CN(C)C/C=C/C(=O)N1CCC[C@@H](NC(=O)c2sc3nccc4c3c2NC(=O)N4c2ccc(Oc3ccccc3)c(Cl)c2)C1 [Example 541, (R,E)-5-(3-Chloro-4-phenoxyphenyl)-N-(1-(4-(dimethylamino)but-2-enoyl)piperidin-3-yl)-4-oxo-4,5-dihydro-3H-1-thia-3,5,8-triazaacenaphthylene-2-carboxamide] | 7.2 |
| C=CC(=O)N1C[C@H](NC(=O)c2sc3nccc4c3c2NC(=O)N4c2ccc(Oc3ccccc3)cc2)[C@@H](F)C1 [Example 543, N-((3S,4S)-1-Acryloyl-4-fluoropyrrolidin-3-yl)-4-oxo-5-(4-phenoxyphenyl)-4,5-dihydro-3H-1-thia-3,5,8-triazaacenaphthylene-2-carboxamide] | 7.5 |
| C=CC(=O)N1CC[C@H](C(=O)Nc2sc3nccc4c3c2NC(=O)N4c2ccc(Oc3ccccc3)cc2C)C1 [Example 544, (S)-1-Acryloyl-N-(5-(2-methyl-4-phenoxyphenyl)-4-oxo-4,5-dihydro-3H-1-thia-3,5,8-triazaacenaphthylen-2-yl)pyrrolidine-3-carboxamide] | 7.0 |
| C=CC(=O)N1CC[C@@H](C(=O)Nc2sc3nccc4c3c2NC(=O)N4c2ccc(Oc3ccccc3)cc2C)C1 [Example 545, (R)-1-Acryloyl-N-(5-(2-methyl-4-phenoxyphenyl)-4-oxo-4,5-dihydro-3H-1-thia-3,5,8-triazaacenaphthylen-2-yl)pyrrolidine-3-carboxamide] | 6.9 |
| CNCC(=O)N1CCC[C@@H](NC(=O)c2sc3nccc4c3c2NC(=O)N4c2ccc(Oc3ccccc3)cc2)C1 [Example 546, (R)—N-(1-(2-(Methylamino)acetyl)piperidin-3-yl)-4-oxo-5-(4-phenoxyphenyl)-4,5-dihydro-3H-1-thia-3,5,8-triazaacenaphthylene-2-carboxamide] | 7.4 |
| Cc1cc(Oc2ccccc2)ccc1N1C(=O)Nc2c(C(=O)N[C@@H]3CCCN(C(=O)[C@@H](C)CO)C3)sc3nccc1c23 [Example 547, N—((R)-1-((S)-3-Hydroxy-2-methylpropanol)piperidin-3-yl)-5-(2-methyl-4-phenoxyphenyl)-4-oxo-4,5-dihydro-3H-1-thia-3,5,8-triazaacenaphthylene-2-carboxamide] | 7.4 |
| C=CC(=O)N1C[C@H](NC(=O)c2sc3nccc4c3c2NC(=O)N4c2ccc(Oc3ccccc3)cc2)[C@@H](OC)C1 [Example 548, N-((3S,4S)-1-Acryloyl-4-methoxypyrrolidin-3-yl)-4-oxo-5-(4-phenoxyphenyl)-4,5-dihydro-3H-1-thia-3,5,8-triazaacenaphthylene-2-carboxamide] | 6.9 |
| Cc1cc(Oc2ccccc2)ccc1N1C(=O)Nc2c(C(=O)N[C@@H]3CCCN(C(=O)/C(F)=C/CN)C3)sc3nccc1c23 [Example 549, (R,Z)—N-(1-(4-Amino-2-fluorobut-2-enoyl)piperidin-3-yl)-5-(2-methyl-4-phenoxyphenyl)-4-oxo-4,5-dihydro-3H-1-thia-3,5,8-triazaacenaphthylene-2-carboxamide] | 7.2 |
| Cc1cc(Oc2ccccc2)ccc1N1C(=O)Nc2c(C(=O)N[C@@H]3CCCN(C(=O)/C(Cl)=C/CN)C3)sc3nccc1c23 [Example 550, (R,Z)—N-(1-(4-Amino-2-chlorobut-2-enoyl)piperidin-3-yl)-5-(2-methyl-4-phenoxyphenyl)-4-oxo-4,5-dihydro-3H-1-thia-3,5,8-triazaacenaphthylene-2-carboxamide] | 7.3 |
| CN1CCC[C@@H](NC(=O)c2sc3nccc4c3c2NC(=O)N4c2cccc(-c3ccccc3)c2)C1 [Example 552, (R)-5-([1,1′-Biphenyl]-3-yl)-N-(1-methylpiperidin-3-yl)-4-oxo-4,5-dihydro-3H-1-thia-3,5,8-triazaacenaphthylene-2-carboxamide] | 6.8 |
| Cc1cccc(-c2cccc(N3C(=O)Nc4c(C(=O)N[C@@H]5CCCNC5)sc5nccc3c45)c2)c1 [Example 553, (R)-5-(3′-Methyl-[1,1′-biphenyl]-3-yl)-4-oxo-N-(piperidin-3-yl)-4,5-dihydro-3H-1-thia-3,5,8-triazaacenaphthylene-2-carboxamide] | 6.8 |
| Cc1ccccc1-c1cccc(N2C(=O)Nc3c(C(=O)N[C@@H]4CCCNC4)sc4nccc2c34)c1 [Example 554, (R)-5-(2′-Methyl-[1,1′-biphenyl]-3-yl)-4-oxo-N-(piperidin-3-yl)-4,5-dihydro-3H-1-thia-3,5,8-triazaacenaphthylene-2-carboxamide] | 6.7 |
| C=CC(=O)N1C[C@H](O)C[C@@H](NC(=O)c2sc3nccc4c3c2NC(=O)N4c2ccc(OC(C)C)cc2C)C1 [Example 557, N-((3R,5R)-1-Acryloyl-5-hydroxypiperidin-3-yl)-5-(4-isopropoxy-2-methylphenyl)-4-oxo-4,5-dihydro-3H-1-thia-3,5,8-triazaacenaphthylene-2-carboxamide] | 7.3 |
| Cc1cc(OC(C)C)ccc1N1C(=O)Nc2c(C(=O)N[C@@H]3CCN(C(=O)/C=C/CN(C)C)C3)sc3nccc1c23 [Example 562, (R,E)-N-(1-(4-(Dimethylamino)but-2-enoyl)pyrrolidin-3-yl)-5-(4-isopropoxy-2-methylphenyl)-4-oxo-4,5-dihydro-3H-1-thia-3,5,8-triazaacenaphthylene-2-carboxamide] | 6.7 |
